From patent US20240216412A1, “OXIDIZED NICOTINAMIDE ADENINE DINUCLEOTIDE (NAD+) PRECURSOR TREATMENT FOR HEART FAILURE ALLEVIATION INDEPENDENT OF MITOCHONDRIAL PROTEIN DEACETYLATION” (University of Washington, priority 2022, published 2024)

Key:
Type in all cases: in vivo, mouse
[1] = test system: WT TAC heart transcriptome; experiment: RNA sequencing with GSEA of TAC hearts; conditions: NR treated TAC hearts vs vehicle
Protocol: RNA Sequencing. Total RNA was extracted from 30 mg of heart tissue using the Qiagen RNeasy kit. RNA Sequencing and quality control was performed BGI (BGISEQ-500). Data Analysis-RNAseq samples were aligned using Tophat (Trapnell et al., 2009) (version 2.0.13). Genelevel read counts were quantified using htseq-count (Anders et al., 2015). Genes expressed above 4TPM in at least 2 samples were used. In differential expression (DESeq), A gene to have total normalized reads above 10 across all samples. DeSeq (Anders and Huber, 2010) was used for differential gene expression analysis. Genes with fold change >1.5 and FDR <0.1 were considered differentially expressed. GSEA was performed using Broad Institute software against the Reactome database. Iregulon v1.3 was used to predict transcription factor binding motif. The following options were used: Motif collection 10 K (9713 PWMs), putative regulatory region 20 kb centered around TSS (7 species). Program default settings for Recovery and Transcription factor prediction options were selected for the analysis.

[2] = test system: Complex I, Cytochrome C Oxidase, Citrate synthase; experiment: Electron transport chain enzyme activities in heart homogenates; conditions: TAC hearts, Sirt3Ko and WT heart lysate
Protocol: Enzyme Activities. Citrate synthase (CS), Complex I (CI) and Cytochrome C Oxidase (CIV), and Mrpp2 dehydrogenase activities were determined in heart tissue homogenates at 30° C. using a protocol adapted from previously published methods (Spinazzi et al., 2012). Briefly, for CS activity frozen cardiac tissue (25 mg) was homogenized at 4° C. in CelLytic™ MT Cell Lysis Reagent (C3228) and then incubated on ice for 30 minutes. The samples were then centrifuged at 10,000×g for 10 minutes at 4° C. and protein concentration determined. CS activity was analyzed in 100 mM Tris buffer containing 0.1% Triton X-100, pH 8.0 as previously described (Spinazzi et al., 2012). For CIV activity, 25 mg of cardiac tissue was homogenized at 4° C. in 50 mM potassium phosphate buffer containing 1 mM EDTA, and 0.1% Triton X-100 (pH 7.4; final concentration, 5 mg tissue/mL). The samples were incubated on ice for 30 minutes followed by centrifugation at 10,000×g for 10 minutes at 4° C. CIV activity was analyzed in 100 mM potassium phosphate buffer as previously described (Spinazzi et al., 2012). For Cl activity, 25 mg of cardiac tissue was homogenized at 4° C. in 50 mM potassium phosphate buffer containing 1 mM EDTA, and 0.1% Triton X-100 (pH 7.4; final concentration, 5 mg tissue/mL). The samples were incubated on ice for 30 minutes followed by centrifugation at 10,000×g for 10 minutes at 4° C. Cl activity was analyzed in 100 mM potassium phosphate buffer as previously described (Spinazzi et al., 2012). In parallel, a separate reactions containing the same quantity of reagents and sample but with the addition of 10 μl of 1 mM rotenone solution. The reactions were started by adding 6 μl of ubiquinone (10 mM), mix and follow the decrease of absorbance at 340 nm for 2 min. The dehydrogenase activity of Mrpp2 was measured as described (Falk et al., 2016) in the reverse direction for reduction of acetoacetyl-CoA (30 mM) to L-3-hydroxyacyl-CoA. The reaction was monitored as the decrease of absorbance at 340 nm.

[3] = test system: retinol oxidation by SDRs; experiment: Retinoid measurements in heart tissue (LC-MS/MS); conditions: TAC hearts, WT and Sirt3Ko mice
Description: Retinoid measurements. Analysis of all-trans-retinyl ester palmitate (RP), all-trans,-retinol (ROL) was done in collaboration with Dr. Nina Isoherranen laboratory using previously established methods (Czuba et al., 2020). RP, ROL were purchased from Toronto Research Chemicals (North York, ON), and retinyl ester palmitate-d4 (RP-d4) and all-trans-retinol-d6 (ROLd6) were purchased from Cambridge Isotopes (Andover, MA). Blank human serum (DC MASS SPECT GOLD MSG4000) for standard curve and quality control matrix was purchased from Golden West Diagnostics (Temecula, CA). Solvents for liquid chromatography tandem mass spectrometry (LC-MS/MS) were Optima LC-MS grade and purchased from Fisher Scientific (Pittsburgh, PA). […]
RP and ROL concentrations were determined on an AB Sciex 5500 QTRAP mass spectrometer (AB Sciex, Foster City), coupled with an Agilent 1290 UHPLC (Agilent, Santa Clara, CA) using a Ascentis Express RP-amide column (2.1×150 mm, […]) and guard column (2.1×5 mm, 2.7 μm). […]
RP and ROL were detected in positive ion mode atmospheric pressure chemical ionization (APCI) mode using selected reaction monitoring (SRM). […] The CE was 25 V, DP was 60 V, entrance potential was 10 V, and collision exit potential was 10 V. Peaks were integrated and quantified using MultiQuant 2.1.1 (AB Sciex, Foster City, CA). […]

NC(=O)c1ccc[n+]([C@@H]2O[C@H](CO)[C@@H](O)[C@H]2O)c1 [NR, Nicotinamide riboside chloride]
Pathways of genes significantly downregulated (GSEA) [1]: enriched in pathways relating to collagen formation and extracellular matrix organization | Pathways of genes significantly upregulated (GSEA) [1]: enriched in pathways relating to mitochondrial metabolism | Activity of citrate synthase [2]: no change | Activity of complex I [2]: restored | Activity of cytochrome c oxidase (COIV) [2]: restored | Retinol and retinylpalmitate accumulation (bottleneck in SDR reactions) [3]: removed the “bottleneck”
